Reference: patent US12370139B2 (TREEWAY TW001 B.V., priority 2017, dated 2025)
Where two headings read alike, the source gives them in different places.

Columns and labels:
[1] = Example 1: single dose, randomized, two-period, cross-over pharmacokinetic study, oral solution vs i.v. infusion; assay type: in vivo, human; conditions: for Edaravone plasma concentration: time Pre
Procedure: A single dose, randomized, two-period, cross-over study was conducted in 18 healthy male and female human subjects.

[2] = Example 2: repeat of the Example 1 study, with edaravone metabolites in plasma; assay type: in vivo, human; conditions: for Edaravone plasma concentration: time Pre; for AUC(0-inf): extrapolated to infinity; for Ratio conjugate-to-parent drug (AUClast): ratio calculated using AUClast (h · μMol/L)
Source text: The study described in Example 1 was repeated, again using 18 healthy male and female human subjects.

[3] = Dissolution rate of edaravone in water; assay type: physicochemical; conditions: in the presence of an alkalizing agent, especially at at least 0.3 grams edaravone per liter
Source text: The oxides and hydroxides of alkaline metals are preferably selected from NaOH, KOH, LiOH and combinations thereof. The oxides and hydroxides of alkali-earth metals are preferably selected from Ca(OH)2, CaO, Mg(OH)2, MgO and combinations thereof. The salts of weak organic and weak inorganic acids are preferably selected from carbonate, bicarbonate, borate, carboxylate (e.g. lactate, citrate, acetate, formate and oxalate), phosphate, sulfate and combinations thereof. The alkaline amines are preferably selected from tris(hydroxymethyl)aminomethane, ethanolamine, diethanolamine, triethanolamine, N-methyl-glucamine, glucosamine, ethylenediamine, diethylamine, triethylamine, isopropylamine, diisopropylamine, ammonia and combinations thereof. The alkaline amino acids are preferably selected from arginine, histidine, lysine and combinations thereof.

[4] = male Wistar rats, cited from earlier work
[5] = SD rats, in comparison to intravenous administration; cited from earlier work
[6] = rats, oral, dose of 27 mg/kg, suspended with 0.5% CMC-Na, compared to 100% for intravenous; cited from earlier work
[7] = APP/PS1 Mice, oral 33.2 mg/kg/d; cited from earlier work
APP/PS1 mice = conditions: cited from earlier work
[8] = both sexes, human, plasma, iv, Example 2, i.v. infusion 60 mg
[9] = both sexes, human, plasma, iv, Example 2, i.v. infusion (60 mg)
[10] = both sexes, human, plasma, Example 2, oral administration 140 mg
[11] = both sexes, human, plasma, Example 2, oral administration (140 mg)
[12] = i.v. infusion of edaravone 60 mg (n = 18)
[13] = oral administration of edaravone 140 mg (n = 18)

Which results are given for `CC1=NN(c2ccccc2)C(=O)C1` [Edaravone, 3-methyl-1-phenyl-2-pyrazolin-5-one]?
Edaravone plasma concentration ([1]; Example 1, i.v. infusion (60 mg, 60 minutes)): 0 ng/mL; Edaravone plasma concentration ([1]; Example 1, oral administration (140 mg)): 0 ng/mL; systemic bioavailability (Fabs) ([1]; Example 1, oral compared to i.v. infusion): 79%; time at which peak maximum concentrations are reached after administration ([1]; Example 1, orally administered): about 15 min; Edaravone plasma concentration ([2]; Example 2, i.v. infusion (60 mg)): 0 ng/mL; Edaravone plasma concentration ([2]; Example 2, oral administration (140 mg)): 0 ng/mL; contribution of gastrointestinal metabolism to the overall plasma metabolism profile ([2]; Example 2, oral in comparison to intravenous administration): No indication for a relevant contribution of gastrointestinal metabolism; time at which peak maximum concentrations are reached after administration ([2]; Example 2, orally administered): about 14 min; bioavailability ([2]; both sexes, human, plasma, 140 mg, Example 2, oral compared to i.v. infusion, read-out: systemic bioavailability (Fabs)): 93%; AUC(0-t) [2, 8]: 1220 ng·h/mL; Cmax [2, 8]: 943 ng/mL; AUC(0-inf) [2, 8]: 1210 ng·h/mL; concentration at 0.17 h [2, 9]: 373 ng/mL; concentration at 0.5 hrs [2, 9]: 696 ng/mL; concentration at 1 hrs [2, 9]: 943 ng/mL; concentration at 1.5 hrs [2, 9]: 298 ng/mL; concentration at 4 h [2, 9]: 36 ng/mL; concentration at 6 h [2, 9]: 13 ng/mL; concentration at 8 h [2, 9]: 7 ng/mL; concentration at 10 h [2, 9]: 5 ng/mL; AUC(0-t) [2, 10]: 2560 ng·h/mL; Cmax [2, 10]: 3530 ng/mL; Tmax [2, 10]: 13.8 min; AUC(0-inf) [2, 10]: 2570 ng·h/mL; concentration at 0.083 h ([2]; both sexes, human, plasma, Example 2, oral administration (140 mg), 0.083 hrs): 1530 ng/mL; concentration at 0.17 h [2, 11]: 2760 ng/mL; concentration at […] ([2]; both sexes, human, plasma, Example 2, oral administration (140 mg), 0.25 hrs): 3060 ng/mL; concentration at 0.5 hrs [2, 11]: 2000 ng/mL; concentration at 1 hrs [2, 11]: 762 ng/mL; concentration at 1.5 hrs [2, 11]: 388 ng/mL; concentration at 2 hrs ([2]; both sexes, human, plasma, Example 2, oral administration (140 mg), 2 hrs): 228 ng/mL; concentration at 4 h [2, 11]: 63 ng/mL; concentration at 6 h [2, 11]: 24 ng/mL; concentration at 8 h [2, 11]: 13 ng/mL; concentration at 10 h [2, 11]: 8 ng/mL; rate at which edaravone dissolves in water [3]: increased substantially; plasma concentration ([4]; orally administered at 10 mg/kg): 243 ng/mL; plasma concentration ([4]; orally administered at 30 mg/kg): 1314 ng/mL; plasma concentration ([4]; orally administered at 100 mg/kg): 10999 ng/mL; oral bioavailability [5]: ~5.8%; absolute bioavailability (Fabs) [6]: 5.23%; bioavailability of oral edaravone, of the i.v. delivery [7]: 38%; cognitive deficits (escaping latency in platform testing, annulus crossing in probing test) (APP/PS1 mice): prominently attenuated; Aβ levels in the brain (APP/PS1 mice; oral intake): significantly reduced; Aβ plaque burden in the hippocampus and neocortex (APP/PS1 mice; oral intake): markedly alleviated

Which “Ratio conjugate-to-parent drug (AUClast)” value [2, 12] does the source give for `Cc1cc(O[C@@H]2O[C@H](C(=O)O)[C@@H](O)[C@H](O)[C@H]2O)n(-c2ccccc2)n1` [Glucuronide conjugate] here?
Its value is 1.4 ± 1.0.

What about the “Ratio conjugate-to-parent drug (AUClast)” value [2, 13] of the same compound?
Its value is 1.8 ± 0.8.

For `Cc1cc(OS(=O)(=O)O)n(-c2ccccc2)n1` [Sulfate conjugate], which “Ratio conjugate-to-parent drug (AUClast)” value [2, 12] is on record?
The value was 9.9 ± 2.7.

And the “Ratio conjugate-to-parent drug (AUClast)” value [2, 13]?
The value was 9.5 ± 2.8.
